Test results taken from publication PMC8154566, “Scaffold-Hopping Strategy on a Series of Proteasome Inhibitors Led to a Preclinical Candidate for the Treatment of Visceral Leishmaniasis” (Journal of Medicinal Chemistry, 2021).
≈ marks a conversion by molar mass, not a printed value. Read-outs that look alike come from different tables or passages of the source. Marks after values point to notes of the source that are not given here.

Assays:
LCK = LCK (Homo sapiens, UniProt P06239); test: Kinase screen LCK; type: biochemical
PI3Kγ = PI3Kγ (Homo sapiens, UniProt P48736); test: Kinase screen PI3Kγ; type: biochemical
AuroraB = AuroraB (Homo sapiens, UniProt Q96GD4); test: Kinase screen AuroraB; type: biochemical
[1] = design: method as in PMID 30962368; conditions: dosed in rats at 300 mg/kg; cited from earlier work
THP-1 cells [2] = conditions: cited from earlier work
[3] = Kinetic aqueous solubility by CLND; type: physicochemical
Experimental: We had successfully used these criteria in the hit to lead stage to identify compounds for in vivo proof-of-concept studies in another program, which subsequently led to the identification of preclinical candidate DDD853651/GSK3186899 active against CRK12.[7] […] A pharmacokinetic (PK) study was thus performed, dosed at 10 mg/kg po and 3 mg/kg iv. […] With the limited knowledge of the PK/PD drivers for the treatment of VL, we considered this to be a suitable profile for the progression of 4 into a previously reported mouse efficacy model of VL,[6],[7],[17],[18] where it was dosed twice daily at 50 mg/kg ip in order to further maximize exposure and give the best chance of achieving proof-of-concept.
(§1) Intramacrophage L. donovani Assay. This assay was conducted as previously described, except for compound exposure time, which was 96 h instead of 72 h.4
(§2) Intrinsic Clearance. This assay was conducted as previously described.5 Aqueous Solubility. This assay was conducted as previously described.6
(§3) FaSSIF Solublity. This assay was conducted as previously described.5,7
(§4) In vivo Mouse Efficacy Studies. In vivo studies were carried out as previously described, with minor modifications.7 Briefly: Control drug used was Miltefosine (30 mg/kg orally, twice daily for 5 days), vehicle used was 10% (v/v) dimethyl sulfoxide (DMSO), 40% polyethylene glycol 400, and 50% deionized water (10 Ml/kg orally, twice daily for 5 days) and mice were treated with test compound intraperitoneally (50 mg/kg twice daily for 5 days). 5
(§5) All regulated procedures on living animals were carried out under the authority of a project license issued by the Home Office under the Animals (Scientific Procedures) Act 1986, as amended in 2012 (and in compliance with EU Directive EU/2010/63). Infected animals had access to food and water ad libitum and were housed under a 12 hour light/dark photoperiod. Animals used in these experiments were female NMRI and Balb/c mice (Harlan, UK).
(§6) Test compound DDD01008714 was dosed orally (P.O.) at 10 mg free base/kg (dose volume 10 mL/kg; dose vehicle: 10% (vol/vol) dimethyl sulfoxide (DMSO), 40% polyethylene glycol 400 (PEG400) and 50% deionized water) to female NMRI mice (n = 3) or intravenously (I.V.) at 3 mg free base/kg (dose volume 5 mL/kg; dose vehicle: 10% (vol/vol) dimethyl sulfoxide (DMSO) and 90% Saline) to female Balb/c mice (n = 3). Blood samples (10 μL) where taken from the tail vein of […]

L. donovani amastigotes [4] = conditions: cited from earlier work
[5] = design: method as in PMID 30962368; conditions: cited from earlier work
[6] = Table 6; mouse liver microsomes; cited from earlier work
L. donovani amastigotes [7] = test: INMAC assay: intramacrophage L. donovani in differentiated THP-1 cells; type: cell-based, Leishmania donovani; conditions: for EC50: THP-1, read-out: INMAC pEC50 (converted); for EC50 / INMAC pEC50: Table 6, at least three replicates, SD ≤0.4; for LdInMac pIC50: supplementary csv
Experimental: (§7) Intramacrophage L. donovani Assay. This assay was conducted as previously described, except for […]

THP-1 cells [8] = test: THP-1 host cell read-out of the INMAC assay; type: cell-based; conditions: for EC50 / IC50: Homo sapiens; for EC50 / THP-1 pEC50: Table 6; for EC50: read-out: THP-1 pEC50 (converted)
Experimental: as §7

[9] = Mouse liver microsomal intrinsic clearance; type: in vitro ADME; conditions: for Mouse CLi: Table 6, mouse liver microsomes; for Cli (mouse, ml/min/g): supplementary csv
Experimental: as §1, §2, §3, §4, §5, §6

[10] = FaSSIF (fasted state simulated intestinal fluid) solubility; type: physicochemical; conditions: for solubility at 4 h: pH 6.5, Table 6
Experimental: as §1, §2, §3, §4, §5, §6

[11] = supplementary csv, flagged as reported previously in the main tables
[12] = Table 6, kinetic, CLND, read-out: Aq. solubility
[13] = THP-1, supplementary csv, read-out: THP1 pIC50 (converted)
[14] = supplementary csv, read-out: Aqueous Solubility

Chain of LCK (P06239 whole entry): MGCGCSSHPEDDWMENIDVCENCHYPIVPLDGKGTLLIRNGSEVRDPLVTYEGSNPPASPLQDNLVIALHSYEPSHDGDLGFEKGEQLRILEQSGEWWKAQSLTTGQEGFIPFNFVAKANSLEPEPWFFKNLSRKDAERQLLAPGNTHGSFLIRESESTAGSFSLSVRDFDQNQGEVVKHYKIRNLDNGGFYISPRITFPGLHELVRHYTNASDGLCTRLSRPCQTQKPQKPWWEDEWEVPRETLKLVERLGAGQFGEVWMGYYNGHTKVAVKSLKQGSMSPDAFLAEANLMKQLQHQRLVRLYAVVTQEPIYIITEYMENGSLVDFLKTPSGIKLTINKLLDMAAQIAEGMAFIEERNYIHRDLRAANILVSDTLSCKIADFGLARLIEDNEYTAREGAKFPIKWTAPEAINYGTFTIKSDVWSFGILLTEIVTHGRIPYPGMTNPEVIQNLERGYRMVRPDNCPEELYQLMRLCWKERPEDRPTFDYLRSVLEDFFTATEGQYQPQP
Chain of PI3Kγ (P48736 whole entry): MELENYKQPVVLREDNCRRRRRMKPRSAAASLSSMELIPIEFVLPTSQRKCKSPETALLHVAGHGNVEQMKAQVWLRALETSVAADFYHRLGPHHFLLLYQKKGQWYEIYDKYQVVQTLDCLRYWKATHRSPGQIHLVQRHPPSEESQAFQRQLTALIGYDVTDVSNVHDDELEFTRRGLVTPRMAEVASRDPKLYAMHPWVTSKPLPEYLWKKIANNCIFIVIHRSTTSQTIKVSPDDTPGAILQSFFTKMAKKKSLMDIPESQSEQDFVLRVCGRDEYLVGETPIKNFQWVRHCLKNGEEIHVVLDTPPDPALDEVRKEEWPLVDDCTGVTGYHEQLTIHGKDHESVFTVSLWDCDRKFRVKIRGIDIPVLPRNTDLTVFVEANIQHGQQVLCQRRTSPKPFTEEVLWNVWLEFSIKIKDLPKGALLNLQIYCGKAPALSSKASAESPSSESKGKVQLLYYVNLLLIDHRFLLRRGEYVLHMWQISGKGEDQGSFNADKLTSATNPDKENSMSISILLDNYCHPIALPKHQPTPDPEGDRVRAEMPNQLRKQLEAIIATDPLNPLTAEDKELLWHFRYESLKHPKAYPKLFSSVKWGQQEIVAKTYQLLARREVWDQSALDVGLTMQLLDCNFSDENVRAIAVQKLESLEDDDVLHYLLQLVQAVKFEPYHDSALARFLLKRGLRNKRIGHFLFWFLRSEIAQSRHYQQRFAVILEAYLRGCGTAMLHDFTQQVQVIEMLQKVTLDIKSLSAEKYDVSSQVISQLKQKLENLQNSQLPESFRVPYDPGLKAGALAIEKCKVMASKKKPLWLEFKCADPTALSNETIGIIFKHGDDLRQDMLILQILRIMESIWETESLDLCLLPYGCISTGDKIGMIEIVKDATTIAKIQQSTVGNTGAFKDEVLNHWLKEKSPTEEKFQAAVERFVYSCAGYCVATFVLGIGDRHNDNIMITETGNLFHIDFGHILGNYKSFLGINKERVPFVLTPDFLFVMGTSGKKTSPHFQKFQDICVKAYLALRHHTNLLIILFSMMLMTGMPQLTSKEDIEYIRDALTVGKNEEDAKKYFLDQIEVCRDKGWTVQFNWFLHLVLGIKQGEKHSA
Chain of AuroraB (Q96GD4 whole entry): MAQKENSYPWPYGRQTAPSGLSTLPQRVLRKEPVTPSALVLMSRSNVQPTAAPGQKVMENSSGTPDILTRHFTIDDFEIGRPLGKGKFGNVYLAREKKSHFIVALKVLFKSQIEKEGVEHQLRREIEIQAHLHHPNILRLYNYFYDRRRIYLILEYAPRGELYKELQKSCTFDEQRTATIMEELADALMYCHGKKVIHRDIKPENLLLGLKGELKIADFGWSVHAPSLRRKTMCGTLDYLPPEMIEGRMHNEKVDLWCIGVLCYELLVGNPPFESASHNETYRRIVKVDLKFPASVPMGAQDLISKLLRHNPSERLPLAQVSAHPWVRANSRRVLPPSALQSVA

Compound	solubility [3, 12] [µM]	EC50 (L. donovani amastigotes [7]; Leishmania donovani) [nM]	EC50 (THP-1 cells [8]; THP-1) [µM]	IC50 (THP-1 cells [8]; [13]) [µM]	Mouse CLi [9] [mL/min/g]	Cli (mouse, ml/min/g) [9] [mL/min/g]	solubility [3, 14] [µM]	solubility at 4 h [10] [µM]	solubility ([10]; supplementary csv) [µM]	other results
O=C(Nc1ccc(F)c(-c2ccn3c(N4CCOCC4)cnc3n2)c1)N1CCCC1 [Compound 1]	420 (≈ 172 µg/mL)	–	–	–	–	–	–	–	–	pIC50 LCK (LCK): < 4.5; pIC50 PI3Kγ (PI3Kγ): < 4.5; pIC50 AuroraB (AuroraB): < 4.5; predicted safety margin [1]: at least 37 fold; THP-1 pEC50 (THP-1 cells [2]; Table 5): <4.3; THP1 pIC50 (THP-1 cells [2]; [11]): <4.3; INMAC pEC50 (L. donovani amastigotes [4]; Table 5): 5.8; LdInMac pIC50 (L. donovani amastigotes [4]; [11]): 5.8; Ames assay result [5]: negative; Mouse CLi [6]: 0.8^e mL/min/g
O=C(Nc1cccc(-c2nc3ncccc3o2)c1)c1ccco1 [Compound 3]	–	–	–	–	–	–	–	–	–	THP-1 pEC50 (THP-1 cells [2]; Table 3): <4.3; INMAC pEC50 (L. donovani amastigotes [4]; Table 3): 5.2
CC(=O)N1CCN(c2cnc3nc(-c4cc(NC(=O)N5CCCC5)ccc4F)ccn23)CC1 [Compound 36, N-(3-(3-(4-Acetylpiperazin-1-yl)imidazo[1,2-a]pyrimidin-7-yl)-4-fluorophenyl)pyrrolidine-1-carboxamide]	≥ 381	> 50100	> 50.1	> 50.1	1.5	1.5	≥ 380	1310 (≈ 591 µg/mL)	> 1000	IC50 (L. donovani amastigotes [7]; Leishmania donovani, THP-1, read-out: LdInMac pIC50 (converted)): > 50.1 µM
CC1CN(c2cnc3nc(-c4cc(NC(=O)N5CCCC5)ccc4F)ccn23)CCO1 (centres unmarked) [Compound 38, N-(4-Fluoro-3-(3-(2-methylmorpholino)imidazo[1,2-a]pyrimidin-7-yl)phenyl)pyrrolidine-1-carboxamide]	248 (≈ 105 µg/mL)	794	50.1	50.1	1.7	1.7	250 (≈ 106 µg/mL)	252 (≈ 107 µg/mL)	250 (≈ 106 µg/mL)	–
C[C@@H]1CN(c2cnc3nc(-c4cc(NC(=O)N5CCCC5)ccc4F)ccn23)C[C@H](C)O1 [Compound 41, N-(3-(3-((2S,6R)-2,6-Dimethylmorpholino)imidazo[1,2-a]pyrimidin-7-yl)-4-fluorophenyl)pyrrolidine-1-carboxamide]	142 (≈ 62.3 µg/mL)	1580	63.1	–	3.4	3.4	170 (≈ 74.5 µg/mL)	372 (≈ 163 µg/mL)	365 (≈ 160 µg/mL)	IC50 (THP-1 cells [8]; THP-1, read-out: THP1 pIC50 (converted)): 63.1 µM
CC1(C)CN(c2cnc3nc(-c4cc(NC(=O)N5CCCC5)ccc4F)ccn23)CCO1 [Compound 42, N-(3-(3-(2,2-Dimethylmorpholino)imidazo[1,2-a]pyrimidin-7-yl)-4-fluorophenyl)pyrrolidine-1-carboxamide]	247 (≈ 108 µg/mL)	1000	25.1	25.1	2.9	2.9	250 (≈ 110 µg/mL)	1840 (≈ 806 µg/mL)	> 1000	–
CC1(C)COCCN1c1cnc2nc(-c3cc(NC(=O)N4CCCC4)ccc3F)ccn12 [Compound 43, N-(3-(3-(3,3-Dimethylmorpholino)imidazo[1,2-a]pyrimidin-7-yl)-4-fluorophenyl)pyrrolidine-1-carboxamide]	210 (≈ 92.1 µg/mL)	794	50.1	50.1	6.0	6	–	627 (≈ 275 µg/mL)	630 (≈ 276 µg/mL)	–
O=C(Nc1ccc(F)c(-c2ccn3c(N4CCC5(CCOC5)C4)cnc3n2)c1)N1CCCC1 (centres unmarked) [Compound 44, N-(3-(3-(2-Oxa-7-azaspiro[4.4]nonan-7-yl)imidazo[1,2-a]pyrimidin-7-yl)-4-fluorophenyl)pyrrolidine-1-carboxamide]	339 (≈ 153 µg/mL)	1260	50.1	50.1	3.7	3.7	340 (≈ 153 µg/mL)	852 (≈ 384 µg/mL)	850 (≈ 383 µg/mL)	–
CC(C)Nc1cnc2nc(-c3cc(NC(=O)N4CCCC4)ccc3F)ccn12 [Compound 45, N-(4-Fluoro-3-(3-(isopropylamino)imidazo[1,2-a]pyrimidin-7-yl)phenyl)pyrrolidine-1-carboxamide]	124 (≈ 47.4 µg/mL)	2510	50.1	50.1	5.2	5.2	120 (≈ 45.9 µg/mL)	13 (≈ 4.97 µg/mL)	–	–
(R)-N-(4-Fluoro-3-(3-(3-methylmorpholino)imidazo[1,2-a]pyrimidin-7-yl)phenyl)pyrrolidine-1-carboxamide [Compound 39]	≥362	–	–	–	2.7	2.7	–	–	–	INMAC pEC50 (L. donovani amastigotes [7]): 5.9; LdInMac pIC50 (L. donovani amastigotes [7]): 5.9; THP-1 pEC50 (THP-1 cells [8]): 4.3; THP1 pIC50 (THP-1 cells [8]; supplementary csv): 4.3; Aqueous Solubility ([3]; supplementary csv): ≥ 360 µM; FaSSIF solubility ([10]; Table 6): 1,322 μM; FaSSIF solubility ([10]; supplementary csv): >1000 µM
(S)-N-(4-Fluoro-3-(3-(3-methylmorpholino)imidazo[1,2-a]pyrimidin-7-yl)phenyl)pyrrolidine-1-carboxamide [Compound 40]	345	–	–	–	1.8	1.8	–	–	–	INMAC pEC50 (L. donovani amastigotes [7]): 6.0; LdInMac pIC50 (L. donovani amastigotes [7]): 6; THP-1 pEC50 (THP-1 cells [8]): 4.3; THP1 pIC50 (THP-1 cells [8]; supplementary csv): 4.3; Aqueous Solubility ([3]; supplementary csv): 350 µM; FaSSIF solubility ([10]; Table 6): 1,578 μM; FaSSIF solubility ([10]; supplementary csv): >1000 µM
